According to the NIST ThermoML archive (doi:10.1016/j.jct.2008.10.008):
Several values for one entry are separate records, joined by “and”; a condition that tells them apart may be missing. Identical values can stand only once.

Key:
[1] = molar heat capacity at saturation pressure
[2] = Molar enthalpy of transition or fusion
[3] = for vapor or sublimation pressure: Inclined piston gauge

CC(C)(C)c1ccc(C(C)(C)C)cc1 [1,4-bis(1,1-dimethylethyl)benzene]
Settings | Triple point temperature [K] | molar heat capacity | vapor or sublimation pressure [kPa]
[1], 5 K, Crystal 2 | – | 0.22 J/K/mol | –
[1], 5.533 K, Crystal 2 | – | 0.3 J/K/mol | –
[1], 6.588 K, Crystal 2 | – | 0.58 J/K/mol | –
[1], 7.503 K, Crystal 2 | – | 0.948 J/K/mol | –
[1], 8.461 K, Crystal 2 | – | 1.45 J/K/mol | –
[1], 9.448 K, Crystal 2 | – | 2.15 J/K/mol | –
[1], 10 K, Crystal 2 | – | 2.66 J/K/mol | –
[1], 10.47 K, Crystal 2 | – | 3.13 J/K/mol | –
[1], 11.6 K, Crystal 2 | – | 4.28 J/K/mol | –
[1], 12.86 K, Crystal 2 | – | 5.92 J/K/mol | –
[1], 14.25 K, Crystal 2 | – | 7.97 J/K/mol | –
[1], 15.79 K, Crystal 2 | – | 10.43 J/K/mol | –
[1], 17.5 K, Crystal 2 | – | 13.43 J/K/mol | –
[1], 19.42 K, Crystal 2 | – | 16.89 J/K/mol | –
[1], 20 K, Crystal 2 | – | 17.93 J/K/mol | –
[1], 21.58 K, Crystal 2 | – | 20.82 J/K/mol | –
[1], 24 K, Crystal 2 | – | 25.18 J/K/mol | –
[1], 26.71 K, Crystal 2 | – | 29.9 J/K/mol | –
[1], 29.7 K, Crystal 2 | – | 34.78 J/K/mol | –
[1], 30 K, Crystal 2 | – | 35.25 J/K/mol | –
[1], 33.02 K, Crystal 2 | – | 39.81 J/K/mol | –
[1], 36.72 K, Crystal 2 | – | 44.96 J/K/mol | –
[1], 40 K, Crystal 2 | – | 49.12 J/K/mol | –
[1], 40.81 K, Crystal 2 | – | 50.11 J/K/mol | –
[1], 45.31 K, Crystal 2 | – | 55.45 J/K/mol | –
[1], 50 K, Crystal 2 | – | 60.83 J/K/mol | –
[1], 50.28 K, Crystal 2 | – | 61.18 J/K/mol | –
[1], 53.35 K, Crystal 2 | – | 64.41 J/K/mol | –
[1], 55.8 K, Crystal 2 | – | 67 J/K/mol | –
[1], 58.24 K, Crystal 2 | – | 69.81 J/K/mol | –
[1], 60 K, Crystal 2 | – | 71.59 J/K/mol | –
[1], 63.85 K, Crystal 2 | – | 75.62 J/K/mol | –
[1], 70 K, Crystal 2 | – | 82.39 J/K/mol | –
[1], 70.16 K, Crystal 2 | – | 82.56 J/K/mol | –
[1], 77.05 K, Crystal 2 | – | 90.04 J/K/mol | –
[1], 80 K, Crystal 2 | – | 93.26 J/K/mol | –
[1], 84.6 K, Crystal 2 | – | 98.29 J/K/mol | –
[1], 87.33 K, Crystal 2 | – | 101.34 J/K/mol | –
[1], 90 K, Crystal 2 | – | 104.26 J/K/mol | –
[1], 92.81 K, Crystal 2 | – | 107.36 J/K/mol | –
[1], 95.36 K, Crystal 2 | – | 110.2 J/K/mol | –
[1], 100 K, Crystal 2 | – | 115.33 J/K/mol | –
[1], 101.84 K, Crystal 2 | – | 117.33 J/K/mol | –
[1], 104.42 K, Crystal 2 | – | 120.11 J/K/mol | –
[1], 113.87 K, Crystal 2 | – | 130.45 J/K/mol | –
[1], 120 K, Crystal 2 | – | 137.01 J/K/mol | –
[1], 124.55 K, Crystal 2 | – | 141.81 J/K/mol | –
[1], 136.29 K, Crystal 2 | – | 154.01 J/K/mol | –
[1], 140 K, Crystal 2 | – | 157.79 J/K/mol | –
[1], 148.14 K, Crystal 2 | – | 166.03 J/K/mol | –
[1], 160 K, Crystal 2 | – | 177.95 J/K/mol | –
[1], 160.18 K, Crystal 2 | – | 178.15 J/K/mol | –
[1], 172.27 K, Crystal 2 | – | 190.18 J/K/mol | –
[1], 180 K, Crystal 2 | – | 197.9 J/K/mol | –
[1], 184.35 K, Crystal 2 | – | 202.24 J/K/mol | –
[1], 196.47 K, Crystal 2 | – | 214.21 J/K/mol | –
[1], 200 K, Crystal 2 | – | 217.74 J/K/mol | –
[1], 208.62 K, Crystal 2 | – | 226.43 J/K/mol | –
[1], 220 K, Crystal 2 | – | 238.04 J/K/mol | –
[1], 220.76 K, Crystal 2 | – | 238.82 J/K/mol | –
[1], 232.87 K, Crystal 2 | – | 251.39 J/K/mol | –
[1], 240 K, Crystal 2 | – | 258.93 J/K/mol | –
[1], 246.43 K, Crystal 2 | – | 265.79 J/K/mol | –
[1], 260 K, Crystal 2 | – | 280.44 J/K/mol | –
[1], 261.46 K, Crystal 2 | – | 282.02 J/K/mol | –
[1], 276.43 K, Crystal 2 | – | 298.62 J/K/mol | –
[1], 280 K, Crystal 2 | – | 302.57 J/K/mol | –
[1], 284.66 K, Crystal 2 | – | 307.57 J/K/mol | –
[1], 291.28 K, Crystal 2 | – | 315.23 J/K/mol | –
[1], 293.84 K, Crystal 2 | – | 318.28 J/K/mol | –
[1], 298.15 K, Crystal 2 | – | 323.15 J/K/mol | –
[1], 298.15 K, Liquid | – | 347.84 J/K/mol | –
[1], 300 K, Crystal 2 | – | 325.26 J/K/mol | –
[1], 300 K, Liquid | – | 349.41 J/K/mol | –
[1], 302.67 K, Crystal 2 | – | 328.3 J/K/mol | –
[1], 304.12 K, Crystal 2 | – | 330 J/K/mol | –
[1], 305.99 K, Crystal 2 | – | 332.26 J/K/mol | –
[1], 310 K, Liquid | – | 357.8 J/K/mol | –
[1], 315.02 K, Crystal 2 | – | 342.89 J/K/mol | –
[1], 320 K, Crystal 2 | – | 348.63 J/K/mol | –
[1], 320 K, Liquid | – | 366 J/K/mol | –
[1], 327.23 K, Crystal 2 | – | 357.27 J/K/mol | –
[1], 330 K, Liquid | – | 374.03 J/K/mol | –
[1], 339.27 K, Crystal 2 | – | 372.29 J/K/mol | –
[1], 340 K, Crystal 2 | – | 373.15 J/K/mol | –
[1], 340 K, Liquid | – | 381.92 J/K/mol | –
[1], 340.54 K, Crystal 2 | – | 373.89 J/K/mol | –
[1], 350 K, Liquid | – | 389.72 J/K/mol | –
[1], 350.73 K, Crystal 1 | – | 375.72 J/K/mol | –
[1], 350.73 K, Crystal 2 | – | 386.83 J/K/mol | –
[1], 350.78 K, Crystal 1 | – | 375.79 J/K/mol | –
[1], 350.78 K, Liquid | – | 390.31 J/K/mol | –
[1], 354.93 K, Liquid | – | 393.57 J/K/mol | –
[1], 356.83 K, Liquid | – | 395.01 J/K/mol | –
[1], 358.46 K, Liquid | – | 396.37 J/K/mol | –
[1], 358.5 K, Liquid | – | 396.23 J/K/mol and 396.2 J/K/mol | –
[1], 360 K, Liquid | – | 397.37 J/K/mol | –
[1], 363.7 K, Liquid | – | 400.3 J/K/mol | –
[1], 366.52 K, Liquid | – | 402.21 J/K/mol | –
[1], 374.01 K, Liquid | – | 407.95 J/K/mol | –
[1], 380 K, Liquid | – | 412.36 J/K/mol | –
[1], 380.16 K, Liquid | – | 412.53 J/K/mol | –
[1], 395.48 K, Liquid | – | 423.8 J/K/mol | –
[1], 398.2 K, Liquid | – | 425.82 J/K/mol | –
[1], 400 K, Liquid | – | 427.09 J/K/mol | –
[1], 416.83 K, Liquid | – | 439.37 J/K/mol | –
[1], 417.39 K, Liquid | – | 439.74 J/K/mol | –
[1], 420 K, Liquid | – | 441.61 J/K/mol | –
[1], 433.85 K, Liquid | – | 451.62 J/K/mol | –
[1], 435.24 K, Liquid | – | 452.59 J/K/mol | –
[1], 440 K, Liquid | – | 456.08 J/K/mol | –
[3], 319.99 K, Crystal 2 | – | – | 0.0214
[3], 329.99 K, Crystal 2 | – | – | 0.0543
[3], 339.98 K, Crystal 2 | – | – | 0.1315
[3], 349.98 K, Crystal 2 | – | – | 0.2996
[3], 354.98 K, Liquid | – | – | 0.4031
[3], 359.98 K, Liquid | – | – | 0.5294
[3], 369.98 K, Liquid | – | – | 0.8897
[3], 379.97 K, Liquid | – | – | 1.445
[3], 387.02 K, Liquid | – | – | 1.996
[3], 389.97 K, Liquid | – | – | 2.276
[3], 394.97 K, Liquid | – | – | 2.825
[3], Crystal, Adiabatic calorimetry | 350.78 | – | –

Settings | Molar enthalpy of transition or fusion, [2] [kcal/mol] | Triple point temperature, [3] [K]
Crystal 1 | 1.9627 | –
Crystal 2 | 3.4321 | 350.73
